Assay results as given in article PMC8472512, “Synthesis and Biochemical Evaluation of Baicalein Prodrugs” (Pharmaceutics, 2021).
Values after ≈ are worked out from the molar mass of the structure shown.

What was measured:
[1] = Metabolic stability in mouse liver S9 fractions; format: in vitro ADME; settings: presence of the cofactor mixture (NADPH, UDPGA, PAPS, GSH), 37 °C, 60 min
Procedure: Working solutions of the test compounds (baicalein, 7-EC, and compounds 1–7) prepared in 50 vol% aqueous MeOH at 120 μM were added in triplicate to a 200 mM tris buffer (pH 7.4) containing mouse liver S9 fractions (1 mg protein/mL), alamethicin (25 μg/mL) and MgCl2 (2 mM). The final concentration of test compound was 3 μM. This mixture was pre-incubated at 37 °C in a shaking water bath for 5 min followed by addition of a cofactor mixture to following final concentrations: 1 mM NADPH, 0.5 mM UDPGA, 0.1 mM PAPS and 2.5 mM GSH. A 50 μL aliquot was taken at 0, 15, 30 and 60 min from each incubation mixture. These samples were then treated in the same way as described above in Mouse plasma stability assay. The supernatant was analyzed by Agilent 6530 Q−TOF LC−MS/MS system in a positive auto MS/MS scan mode. The liquid chromatography was conducted in the same condition as described above in mouse plasma stability assay. The analytical data were analyzed using Agilent MassHunter Quantitative Analysis Software (version B.05.00). MS chromatograms were extracted using calculated exact masses ([M+H]^+) for the analytes. Peak area ratios of the analytes vs. IS on the extracted MS chromatograms were used to calculate % remaining values at each time points.

Mouse pharmacokinetics = format: in vivo, male ICR mice; settings: mice
Procedure: Pharmacokinetic studies were conducted with male ICR mice (8 weeks old; 30–35 g body wt.) purchased from Koatech Company (Pyeongtaek, Korea), as reported previously. Intravenous dosing solutions were prepared in EtOH/20% aqueous HPβCD (10/90 vol%) at 2 and 3 mg/mL for baicalein and compound 2, respectively. Oral dosing solutions were prepared in EtOH/tween 80/20% aqueous HPβCD (10/10/80 vol%) at 1 and 1.5 mg/mL for baicalein and compound 2, respectively. Plasma sample analysis was performed as described above in mouse plasma stability assay.

[2] = Kinetic solubility in phosphate buffer (pH 7.4); format: physicochemical; settings: aqueous buffer, kinetic from dmso stock; shake-flask, 0.1 M phosphate buffer (pH 7.4), triplicate
Procedure: Stock solutions of the test compounds (baicalein and compounds 1–7) prepared at 10 mM in DMSO were diluted with 0.1 M potassium phosphate buffer (pH 7.4) in Mini-UniPrep filter vial (PTFE membrane, 0.45 μm) to a final concentration of 500 µM. The mixture was then shaken at 800 rpm for 90 min at rt and filtered by slowly pressing the upper tube of the Mini-Uniprep vial. The filtrate (300 µL) was then transferred to an HPLC vial containing same volume of acetonitrile. Sample analysis was conducted as described above in Chemical stability assay.

[3] = logD7.4 by shake-flask method; format: physicochemical; settings: 0.1 M phosphate buffer (pH 7.4), duplicate
Procedure: The assay was conducted as reported previously. Briefly, 100 µM test solutions were prepared by diluting 10 mM stock solutions of the test compounds (baicalein and compounds 1–7) in 0.1 M potassium phosphate buffer (pH 7.4) saturated with 1-octanol. Standard solutions were prepared by diluting each test solution with the same volume of DMSO in HPLC vials. Partition solutions were prepared by mixing each test solution and 1-octanol saturated with 0.1 M potassium phosphate buffer (pH 7.4) at three different volume ratios, namely 1:0.02, 1:0.2 and 1:2, in HPLC vials. The partition solutions were then vortexed for 1 h at 1500 rpm at rt. The standard solutions and the aqueous phase (bottom layer) of each partition solution were analyzed directly from the HPLC vials as described above in Chemical stability assay. The logD7.4 values were calculated by the following equation: logD7.4=log(2×As/Ap−1)·Vt/Vo where As and Ap are, respectively, the peak areas of the standard and the aqueous phase of the partition solutions and Vt and Vo the volumes of test solution and 1-octanol of the partition solutions.

[4] = Chemical stability in physiologically-relevant solutions; format: physicochemical; settings: 37 °C; for remaining at 4 h, 10 μM: at 4 h vs time 0
Procedure: Stock solutions of the test compounds (baicalein, compounds 1–7) prepared in MeOH at 10 mM were diluted in 0.1 N HCl and 0.1 M potassium phosphate buffer (pH 6.5 and 7.4) in triplicate to a final concentration of 10 μM. The mixtures were then incubated at 37 °C in a shaking water bath. Samples taken at 0, 1, 2, 3 and 4 h were analyzed by Thermo UltiMate 3000 series HPLC system. Chromatographic separation was performed on an Agilent Eclipse Plus C18 column (100 × 4.6 mm, 3.5 µm) kept at 40 °C with isocratic elution at a flow rate of 0.6 mL/min using a mixture of 0.1 vol% TFA in deionized water and acetonitrile as the mobile phase. The detection wavelengths were 277 and 270 nm for baicalein and compounds 1–7, respectively. Peak areas of the analytes on the UV chromatograms were used to calculate % remaining values at each time points.
The stability of baicalein and of the synthesized carbamate prodrugs (1–7) was determined in solutions mimicking gastric (0.1 N HCl, pH ~ 1), intestinal (pH 6.5 phosphate buffer), and physiological (pH 7.4 phosphate buffer) conditions. […]. […] […]. The degradation of the carbamate prodrugs was accompanied by the formation of baicalein under all conditions in this study (data not shown). Although the exact reason for this pH-dependent stability remains unknown, it is plausible that the side chains of amino acids somehow affect the hydrolysis of the carbamate bond of the prodrugs.

[5] = PAMPA (parallel artificial membrane permeability assay)
Procedure: (§1) The assay was conducted as reported previously [15]. The samples were analyzed as described below in mouse plasma stability assay.

in vitro = settings: PAMPA
Procedure: as §1

[6] = male, ICR, mouse, iv, plasma analyte after single i.v. dose of baicalein 10 mg/kg
[7] = male, ICR, mouse, iv, plasma analyte after single i.v. dose of compound 2 15 mg/kg
[8] = male, ICR, mouse, po, plasma analyte after single p.o. dose of baicalein 10 mg/kg
[9] = male, ICR, mouse, po, plasma analyte after single p.o. dose of compound 2 50 mg/kg
[10] = pH 6.5 buffer (0.1 M potassium phosphate)
[11] = pH 7.4 buffer (0.1 M potassium phosphate)
[12] = male, ICR, mouse, in vivo, iv, plasma analyte after single i.v. dose of compound 2 15 mg/kg
[13] = male, ICR, mouse, in vivo, po, plasma analyte after single p.o. dose of compound 2 50 mg/kg

| SMILES | solubility kinetic at 90 min [2] [µM] | logD [3] | half-life at 10 μM ([4]; buffer, pH 1, 0.1 N HCl, 10 μM) [h] | remaining at 4 h, 10 μM ([4]; buffer, pH 1, 0.1 N HCl) [%] | half-life at 10 μM [4, 10] [h] | remaining at 4 h, 10 μM ([4]; pH 6.5 buffer) [%] | half-life at 10 μM [4, 11] [h] | remaining at 4 h, 10 μM ([4]; pH 7.4 buffer) [%] | further results |
| --- | --- | --- | --- | --- | --- | --- | --- | --- | --- |
| CCOc1ccc2ccc(=O)oc2c1 [7-Ethoxycoumarin] | – | – | – | – | – | – | – | – | metabolism in mouse liver S9 fractions [1]: rapid metabolism |
| O=C(O)[C@H]1O[C@@H](Oc2cc3oc(-c4ccccc4)cc(=O)c3c(O)c2O)[C@H](O)[C@@H](O)[C@@H]1O [Baicalin] | – | – | – | – | – | – | – | – | time plasma analyte was above the quantitation limit (Mouse pharmacokinetics; after single i.v. dose of 10 mg/kg baicalein): 24 h; time plasma analyte was above the quantitation limit (Mouse pharmacokinetics; after single p.o. dose of 10 mg/kg baicalein, 24 h time course): 24 h; AUC(0-inf) (Mouse pharmacokinetics; [6]): 2600 ± 510 ng·h/mL; AUC(0-t) (Mouse pharmacokinetics; [6]): 2450 ± 490 ng·h/mL; Cmax (Mouse pharmacokinetics; [6]): 4590 ± 870 ng/mL; Tmax (Mouse pharmacokinetics; [6]): 0.1 h; half-life (Mouse pharmacokinetics; [6]): 6.2 ± 2.8 h; AUC(0-inf) (Mouse pharmacokinetics; [7]): 500 ± 170 ng·h/mL; AUC(0-t) (Mouse pharmacokinetics; [7]): 200 ± 88 ng·h/mL; Cmax (Mouse pharmacokinetics; [7]): 90 ± 10 ng/mL; Tmax (Mouse pharmacokinetics; [7]): 0.1 h; half-life (Mouse pharmacokinetics; [7]): 6.6 ± 1.6 h; AUC(0-inf) (Mouse pharmacokinetics; [8]): 4890 ± 1400 ng·h/mL; AUC(0-t) (Mouse pharmacokinetics; [8]): 4420 ± 1440 ng·h/mL; Cmax (Mouse pharmacokinetics; [8]): 2260 ± 670 ng/mL; Tmax (Mouse pharmacokinetics; [8]): 0.2 h; half-life (Mouse pharmacokinetics; [8]): 6.3 ± 3 h; AUC(0-t) (Mouse pharmacokinetics; [9]): 680 ± 210 ng·h/mL; Cmax (Mouse pharmacokinetics; [9]): 130 ± 40 ng/mL; Tmax (Mouse pharmacokinetics; [9]): 6 ± 2.8 h |
| CC(C)C[C@H](NC(=O)Oc1cc2oc(-c3ccccc3)cc(=O)c2c(O)c1O)C(=O)O [Compound 1, (S)-2-((((5,6-Dihydroxy-4-oxo-2-phenyl-4H-chromen-7-yl)oxy)carbonyl)amino)-4-methylpentanoic acid] | 443 ± 65.9 (≈ 189 µg/mL) | 0.39 | 1.4 ± 0.3 | 17.4 ± 2.1 | > 4 | 92.9 ± 5 | > 4 | 98 ± 3.6 | – |
| CC(C)[C@H](NC(=O)Oc1cc2oc(-c3ccccc3)cc(=O)c2c(O)c1O)C(=O)O [Compound 2, (S)-2-((((5,6-Dihydroxy-4-oxo-2-phenyl-4H-chromen-7-yl)oxy)carbonyl)amino)-3-methylbutanoic acid] | 479.2 ± 4.4 (≈ 198 µg/mL) | 0.04 | > 4 | 105 ± 3.5 | > 4 | 92.8 ± 4.2 | > 4 | 74.4 ± 6.6 | AUC(0-inf) (Mouse pharmacokinetics; [12]): 88700 ± 43200 ng·h/mL; AUC(0-t) (Mouse pharmacokinetics; [12]): 88600 ± 43200 ng·h/mL; Cmax (Mouse pharmacokinetics; [12]): 65100 ± 4290 ng/mL; Tmax (Mouse pharmacokinetics; [12]): 0.1 h; half-life (Mouse pharmacokinetics; [12]): 1.9 ± 0.6 h; clearance (Mouse pharmacokinetics; male, ICR, mouse, in vivo, iv, single i.v. dose of compound 2 15 mg/kg): 3.33 mL/min/kg; Vd (Mouse pharmacokinetics; male, ICR, mouse, in vivo, iv, single i.v. dose of compound 2 15 mg/kg, read-out: VSS): 0.4 ± 0.1 L/kg; AUC(0-inf) (Mouse pharmacokinetics; [13]): 5820 ± 1710 ng·h/mL; AUC(0-t) (Mouse pharmacokinetics; [13]): 5430 ± 1730 ng·h/mL; Cmax (Mouse pharmacokinetics; [13]): 2930 ± 590 ng/mL; Tmax (Mouse pharmacokinetics; [13]): 0.3 ± 0.09 h; half-life (Mouse pharmacokinetics; [13]): 1.7 ± 0.5 h; bioavailability (Mouse pharmacokinetics; male, ICR, mouse, in vivo, oral bioavailability of compound 2, p.o. 50 mg/kg vs i.v. 15 mg/kg): 2 ± 0.6%; Papp [5]: 0.04 ± 0.02 ×10⁻⁶ cm/s |
| CC[C@@H](C)[C@H](NC(=O)Oc1cc2oc(-c3ccccc3)cc(=O)c2c(O)c1O)C(=O)O [Compound 3, (2S,3R)-2-((((5,6-Dihydroxy-4-oxo-2-phenyl-4H-chromen-7-yl)oxy)carbonyl)amino)-3-methylpentanoic acid] | 447 ± 36.9 (≈ 191 µg/mL) | 0.25 | > 4 | 98.9 ± 5 | > 4 | 90.2 ± 1.1 | > 4 | 80.1 ± 2.5 | – |
| C[C@@H](O)[C@H](NC(=O)Oc1cc2oc(-c3ccccc3)cc(=O)c2c(O)c1O)C(=O)O [Compound 4, (2S,3R)-2-((((5,6-Dihydroxy-4-oxo-2-phenyl-4H-chromen-7-yl)oxy)carbonyl)amino)-3-hydroxybutanoic acid] | 347 ± 11.4 (≈ 144 µg/mL) | -0.05 | > 4 | 109 ± 3.4 | 2.8 ± 0.1 | 37.3 ± 0.2 | 1.7 ± 0.1 | 20 ± 1 | – |
| O=C(N[C@@H](Cc1ccccc1)C(=O)O)Oc1cc2oc(-c3ccccc3)cc(=O)c2c(O)c1O [Compound 5, (S)-2-((((5,6-Dihydroxy-4-oxo-2-phenyl-4H-chromen-7-yl)oxy)carbonyl)amino)-3-phenylpropanoic acid] | 375 ± 21.4 (≈ 173 µg/mL) | 0.43 | 2.2 ± 0.4 | 27.4 ± 5.1 | > 4 | 78.5 ± 1.5 | > 4 | 70.2 ± 2.5 | metabolism in mouse liver S9 fractions [1]: metabolized much faster than the other prodrugs |
| C[C@H](NC(=O)Oc1cc2oc(-c3ccccc3)cc(=O)c2c(O)c1O)C(=O)O [Compound 6, (S)-2-((((5,6-Dihydroxy-4-oxo-2-phenyl-4H-chromen-7-yl)oxy)carbonyl)amino)propanoic acid] | 400 ± 14.7 (≈ 154 µg/mL) | -0.18 | > 4 | 90.2 ± 4.1 | > 4 | 81.8 ± 1.3 | > 4 | 76.6 ± 1.7 | Papp [5]: < 0.01 ×10⁻⁶ cm/s |
| O=C(O)CNC(=O)Oc1cc2oc(-c3ccccc3)cc(=O)c2c(O)c1O [Compound 7, 2-((((5,6-Dihydroxy-4-oxo-2-phenyl-4H-chromen-7-yl)oxy)carbonyl)amino)acetic acid] | 357.1 ± 1.4 (≈ 133 µg/mL) | -0.39 | 1.5 ± 0.3 | 23.3 ± 3.6 | > 4 | 82.2 ± 1 | > 4 | 76.7 ± 0.3 | – |
| O=C(N[C@H](CO)[C@H](O)c1ccc([N+](=O)[O-])cc1)C(Cl)Cl [chloramphenicol] | – | – | – | – | – | – | – | – | Papp (in vitro): > 1 ×10⁻⁶ cm/s |
| NS(=O)(=O)c1cc2c(cc1Cl)NCNS2(=O)=O [hydrochlorothiazide] | – | – | – | – | – | – | – | – | Papp (in vitro): < 0.1 ×10⁻⁶ cm/s |
| COCCc1ccc(OCC(O)CNC(C)C)cc1 (centres unmarked) [metoprolol] | – | – | – | – | – | – | – | – | Papp (in vitro): > 1 ×10⁻⁶ cm/s |
| CC(C)(C)NCC(O)COc1cccc2c1CC(O)C(O)C2 (centres unmarked) [nadolol, reference compound] | – | – | – | – | – | – | – | – | Papp [5]: < 0.1 ×10⁻⁶ cm/s |
| CC(C)NCC(O)COc1cccc2ccccc12 (centres unmarked) [propranolol] | – | – | – | – | – | – | – | – | Papp (in vitro): > 1 ×10⁻⁶ cm/s |
